# Tested on: modified version of the GPR119 receptor (94% identity to human receptor)
# Assay: cAMP production assay (LANCE cAMP kit, TR-FRET) in HEK-293 cells
# Type: cell-based
# Conditions: for cAMP production in HEK-293 cells: HEK-293 cells stably expressing modified GPR119, test compounds 0.2 nM to 10 μM, one-hour incubation at ambient temperature; for Fold over baseline: increase in cAMP relative to basal levels, agonist activity if 1.5-fold or greater
# Method in brief: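 Doxycycline-induced (1 μg/mL, overnight) HEK-293 cells expressing modified GPR119 were thawed, 2000 cells/well, and exposed to compounds (0.2 nM-10 μM final, 0.5% DMSO) for 1 h at ambient temperature in HBSS/HEPES/BSA. cAMP was measured by LANCE TR-FRET against a standard curve. Agonism was defined as ≥1.5-fold over basal.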
Compound,cAMP production in HEK-293 cells [nmol],Fold over baseline
"CS(=O)(=O)c1ccc(N[C@H]2CCN(C3CCN(c4ncc(Cl)cn4)CC3)C2=O)c(F)c1 [Example 10, (S)-1-(1-(5-chloropyrimidin-2-yl)piperidin-4-yl)-3-(2-fluoro-4-(methylsulfonyl)phenylamino)pyrrolidin-2-one]",6.5,2.1
"CCc1cnc(N2CCC(N3CC[C@H](Oc4cc(C)c(S(C)(=O)=O)cc4F)C3=O)CC2)nc1 [Example 96, (S)-1-(1-(5-ethylpyrimidin-2-yl)piperidin-4-yl)-3-(2-fluoro-5-methyl-4-(methylsulfonyl)phenoxy)pyrrolidin-2-one]",31.7,3.5
"CCc1cnc(N2CCC(N3CCC[C@H](Nc4ccc(S(C)(=O)=O)cc4F)C3=O)CC2)nc1 [Example 40, (S)-1′-(5-ethylpyrimidin-2-yl)-3-(2-fluoro-4-(methylsulfonyl)phenylamino)-[1,4′-bipiperidin]-2-one]",12.4,2.2
"CS(=O)(=O)c1cc(F)c(O[C@H]2CCN(C3CCN(c4ncc(Br)cn4)CC3)C2=O)cc1F [Example 90, (S)-1-(1-(5-bromopyrimidin-2-yl)piperidin-4-yl)-3-(2,5-difluoro-4-(methylsulfonyl)phenoxy)pyrrolidin-2-one]",11.7,2.7
"O=C1[C@@H](Nc2ccc(C(F)(F)F)cn2)CCN1C1CCN(c2cnc(Cl)cn2)CC1 [Example 23, (S)-1-(1-(5-chloropyrazin-2-yl)piperidin-4-yl)-3-(5-(trifluoromethyl)pyridin-2-ylamino)pyrrolidin-2-one]",13.6,3.0
"CCc1cnc(N2CCC(N3CC[C@H](Oc4cc(C)c(Br)cc4F)C3=O)CC2)nc1 [Example 97, (S)-3-(4-bromo-2-fluoro-5-methylphenoxy)-1-(1-(5-ethylpyrimidin-2-yl)piperidin-4-yl)pyrrolidin-2-one]",15.3,2.2
"CCc1ccc(N2CCC(N3CC[C@@H](Nc4ccc(S(C)(=O)=O)cc4F)C3=O)CC2)nc1 [Example 27B, (R)-1-(1-(5-ethylpyridin-2-yl)piperidin-4-yl)-3-(2-fluoro-4-(methylsulfonyl)phenylamino)pyrrolidin-2-one]",7.5,2.2
"CS(=O)(=O)c1cc(F)c(N[C@H]2CCN(C3CCN(c4ccc(C(F)(F)F)cn4)CC3)C2=O)c(F)c1 [Example 105, (S)-3-(2,6-difluoro-4-(methylsulfonyl)phenyl-amino)-1-(1-(5-(trifluoromethyl)pyridin-2-yl)piperidin-4-yl)pyrrolidin-2-one]",11.5,1.6
"CC(C)c1cnc(N2CCC(N3CCC[C@H](Nc4cc(F)c(S(C)(=O)=O)cc4F)C3=O)CC2)cn1 [Example 60, (S)-3-(2,5-difluoro-4-(methylsulfonyl)phenylamino)-1′-(5-isopropylpyrazin-2-yl)-[1,4′-bipiperidin]-2-one]",27.4,4.4
"CS(=O)(=O)c1ccc(N[C@H]2CCN(C3CCN(c4ncc(Cl)cc4C#N)CC3)C2=O)c(F)c1 [Example 116, (S)-5-chloro-2-(4-(3-(2-fluoro-4-(methylsulfonyl)phenyl-amino)-2-oxopyrrolidin-1-yl)piperidin-1-yl)nicotinonitrile]",10.2,2.1
"CS(=O)(=O)c1cc(F)c(N[C@H]2CCN(C3CCN(c4cnc(C#N)cn4)CC3)C2=O)cc1F [Example 16, (S)-5-(4-(3-(2,5-difluoro-4-(methylsulfonyl)phenylamino)-2-oxopyrrolidin-1-yl)piperidin-1-yl)pyrazine-2-carbonitrile]",21.4,4.0
"CS(=O)(=O)c1cc(F)c(N[C@H]2CCN(C3CCN(c4cnc(Br)cn4)CC3)C2=O)cc1F [Example 15, (S)-1-(1-(5-bromopyrazin-2-yl)piperidin-4-yl)-3-(2,5-difluoro-4-(methylsulfonyl)phenylamino)pyrrolidin-2-one]",24.2,4.2
"CS(=O)(=O)c1ccc(N[C@H]2CCN(C3CCN(c4ccc(C(F)(F)F)cn4)CC3)C2=O)c(F)c1 [Example 99, (S)-3-(2-fluoro-4-(methyl-sulfonyl)phenylamino)-1-(1-(5-(trifluoromethyl)pyridin-2-yl)piperidin-4-yl)pyrrolidin-2-one]",12.4,3.5
"Cc1cc(N[C@H]2CCN(C3CCN(c4cnc(Cl)cn4)CC3)C2=O)c(F)cc1S(C)(=O)=O [Example 1, (S)-1-(1-(5-chloropyrazin-2-yl)piperidin-4-yl)-3-(2-fluoro-5-methyl-4-(methylsulfonyl)phenylamino)pyrrolidin-2-one]",23.5,3.9
O=C(c1ccc(O[C@H]2CCN(C3CCN(c4ncc(C(F)(F)F)cc4Cl)CC3)C2=O)c(F)c1)N1CCCC1 [Example 151],35.8,4.7
"CS(=O)(=O)c1cc(F)c(N[C@H]2CCN(C3CCN(c4ncc(Cl)cc4Cl)CC3)C2=O)c(F)c1 [Example 110, (S)-1-(1-(3,5-dichloropyridin-2-yl)piperidin-4-yl)-3-(2,6-difluoro-4-(methylsulfonyl)phenyl-amino)pyrrolidin-2-one]",29.3,2.3
"CCc1cnc(N2CCC(N3CCC[C@H](Nc4cc(Cl)c(S(C)(=O)=O)cc4F)C3=O)CC2)nc1 [Example 48, (S)-3-(5-chloro-2-fluoro-4-(methyl-sulfonyl)phenylamino)-1′-(5-ethylpyrimidin-2-yl)-[1,4′-bipiperidin]-2-one]",16.9,3.0
"CS(=O)(=O)c1ccc(O[C@H]2CCN(C3CCN(c4ncc(C(F)(F)F)cc4Cl)CC3)C2=O)cn1 [Example 143, (S)-1-(1-(3-chloro-5-(trifluoromethyl)pyridin-2-yl)piperidin-4-yl)-3-(6-(methylsulfonyl)pyridin-3-yloxy) pyrrolidin-2-one]",13.3,4.3
"CS(=O)(=O)c1ccc(O[C@H]2CCN(C3CCN(c4ncc(Cl)cc4F)CC3)C2=O)cn1 [Example 144, (S)-1-(1-(5-chloro-3-fluoropyridin-2-yl)piperidin-4-yl)-3-(6-(methylsulfonyl)pyridin-3-yloxy)pyrrolidin-2-one]",19.6,2.9
"CCc1cnc(N2CCC(N3CC[C@H](Nc4ccc(S(C)(=O)=O)cc4F)C3=O)CC2)cn1 [Example 89, (S)-1-(1-(5-ethylpyrazin-2-yl)piperidin-4-yl)-3-(2-fluoro-4-(methylsulfonyl)phenyl-amino)pyrrolidin-2-one trifluoroactetate]",23.1,4.8
"CN(C)C(=O)c1cnc(N2CCC(N3CC[C@H](Nc4ccc(S(C)(=O)=O)cc4F)C3=O)CC2)c(Cl)c1 [Example 157, (S)-5-chloro-6-(4-(3-(2-fluoro-4-(methylsulfonyl)phenylamino)-2-oxopyrrolidin-1-yl)piperidin-1-yl)-N,N-dimethylnicotinamide]",8.3,3.1
"CCc1ncc(N2CCC(N3CC[C@H](Nc4ccc(S(C)(=O)=O)cc4F)C3=O)CC2)cn1 [Example 159, (S)-1-(1-(2-ethylpyrimidin-5-yl)piperidin-4-yl)-3-(2-fluoro-4-(methylsulfonyl)phenylamino)pyrrolidin-2-one]",8.0,2.0
"CCc1cnc(N2CCC(N3CCC[C@H](N(C)c4cc(F)c(S(C)(=O)=O)cc4F)C3=O)CC2)nc1 [Example 78, (S)-3-((2,5-difluoro-4-(methylsulfonyl)phenyl)(methyl)amino)-1′-(5-ethylpyrimidin-2-yl)-[1,4′-bipiperidin]-2-one]",13.6,3.4
"CS(=O)(=O)c1ccc(NC2CCN(C3CCN(c4ccc(-c5ccccc5)cn4)CC3)C2=O)c(F)c1 (stereo not drawn) [Example 25, 3-(2-fluoro-4-(methylsulfonyl)phenylamino)-1-(1-(5-phenylpyridin-2-yl)piperidin-4-yl)pyrrolidin-2-one]",11.6,2.9
"CCc1cnc(N2CCC(N3CCC[C@H](Nc4cc(C)c(S(C)(=O)=O)cc4F)C3=O)CC2)nc1 [Example 58, (S)-1′-(5-ethylpyrimidin-2-yl)-3-(2-fluoro-5-methyl-4-(methylsulfonyl)phenylamino)-[1,4′-bipiperidin]-2-one]",13.2,2.4
"CS(=O)(=O)c1ccc(N[C@H]2CCN(C3CCN(c4nccnc4C#N)CC3)C2=O)c(F)c1 [Example 132, (S)-3-(4-(3-(2-fluoro-4-(methylsulfonyl)phenyl-amino)-2-oxopyrrolidin-1-yl)piperidin-1-yl)pyrazine-2-carbonitrile]",9.1,1.5
"CS(=O)(=O)c1cc(F)c(O[C@H]2CCCN(C3CCN(c4cnc(Cl)cn4)CC3)C2=O)cc1F [Example 164, (S)-1′-(5-chloropyrazin-2-yl)-3-(2,5-difluoro-4-(methylsulfonyl)phenoxy)-[1,4′-bipiperidin]-2-one]",21.6,4.3

# Reference: patent US8754226B2, “Piperidinyl-substituted lactams as GPR119 modulators” (Array BioPharma Inc., priority 2010, dated 2014)
